Measured values reported in US11420970B1 (NOVARTIS AG, priority 2019, dated 2022).
Where two headings read alike, the source gives them in different places.

Key:
[1] = molecular target: NSD2 [1-1365] (Homo sapiens (Human), UniProt O96028); test: LC-MS/MS-based NSD2 enzymatic assay (SAH production); format: biochemical; conditions: read-out: NSD2 IC50
Procedure: LC-MS/MS-Based NSD2 Enzymatic Assay
This assay employed LC-MS/MS technology to monitor the SAH production from the NSD2 enzymatic reaction. The enzymatic reaction was performed in white proxiplate plus 384-well microplate (Perkin Elmer). The reaction mixture (10 μL) were composed of 8 nM NSD2 [1-1365], […] SAM (USB, 10601) and 400 nM nucleosome (purified from mouse liver) in reaction buffer (20 mM Tris-HCl, pH at 8.0, 0.01% Tween 20, 10 mM MgCl2, 50 mM NaCl, 1 mM DTT, 1 mM TCEP (pH7.5)). After 90 min incubation at room temperature, 3 μL quenching solution containing 2.5% TFA with 320 nM d4-SAH was added to stop the reaction.
For the inhibition assay, compound solutions were transferred into the wells by Mosquito™ (TTP LabTech). The inhibition assays were carried out by preincubating various concentrations of the inhibitor with 5 uL reaction mixture containing 16 nM NSD2 [1-1365] and 2 uM SAM (USB, 10601) in reaction buffer. After 20 min preincubation, 5 uL solution containing 800 nM nucleosome (purified from mouse liver) in reaction buffer was added to initiate the reaction. The reaction was stopped by 3 μL quenching solution containing 2.5% TFA with 320 nM d4-SAH after 90 min.
The SAH production from the enzymatic assays were monitored by LC-MS/MS on an API 4000 triple quadrupole mass spec with Turbolon Spray (Applied Biosystem) coupled with Prominenece UFLC(Shimazu). Liquid chromatography was performed on a Chromolith FastGradient HPLC column (RP-18e, 25-2 mm, from Merck) at a flow rate of 0.8 ml/min. The column was connected directly to the turbo ion electrospray operating in the positive-ion mode. Mobile phase A is 0.1% FA and 2% methanol in water and mobile phase B is 0.1% FA in ACN. Injection volume was 3 μl and the autosampler was kept at 4 degree. SAH and d4-SAH were simultaneously monitored. Data were acquired and processed by Analyst software.
To quantify the formed SAH, d4-SAH was added as internal standard (IS). A series of SAH (Sigma, A9384) solution at varying concentration (1-500 nM in reaction buffer) was mixed with quenching solution mentioned above. Then LC-MS/MS was carried out on API 4000 LC/MS/MS system to detect both SAH and d4-SAH. The plot of SAH peak area/IS peak area vs SAH concentration was used to generate the normalization factor of SAH. The SAH production from real enzymatic reaction was derived from the standard curve of SAH. The down-limit of our system for the detection of SAH is around 1-2 nM, and the linear range can reach up to 500 nM.

[2] = system: cellular H3K36me2 level in multiple myeloma cell line KMS11 (t(4;14)+); test: H3K36me2 cellular ELISA assay in KMS11-Par line; format: cell-based; conditions: Homo sapiens, KMS-11; KMS11-Par line, ELISA, 72 hours; read-out: H3K36me2 ELISA in KMS11-Par
Procedure: H3K36Me2 Cellular ELISA Assay in KMS11-Par Line
An ELISA (enzyme-linked immunosorbent assay) based assay was used to test the ability of candidate compound to reduce cellular H3K36me2 level in multiple myeloma cell line KMS11 (t(4;14)+). KMS11 (Horizon Discovery Ltd.) cells are maintained in RPM11640 media with 12.5% FBS and 50 U/ml Penicillin-Streptomycin. For assay compound treatment, single cell suspension was prepared in Opti-MEM supplemented with B-27 and N2 supplement (Invitrogen 11058-021, 17504-044, 17502-048) for ELISA and in maintenance media for cellTiter Glo (CTG) viability assay. One day prior to cell treatment, 1,250 KMS11 cells were seeded into 384-well Greiner CellStar TC plate (Greiner #781086) at the final volume of 30 μL/well.
Cells were treated with tested compounds at the desired concentration for 72 hours. Crude histone lysate was extracted by 0.4M HCl following neutralization by 0.5M Sodium phosphate, dibasic (Na2HPO4), pH ˜12.5. Equal amount of histone lysate was loaded to Corning 384-well high biding plate (Corning #3577, black) for H3K36m2 and to Thermo 384-well high binding Nunc plate (Thermo #460372, white) for total H3.
Histone bound plates were washed and blocked with 5% BSA. […] The abundance of H3K36me2 and total H3 was measured by Chemiluminesce on a plate reader. Cell viability was monitored on a parallel seeded plate with CellTiter-Glo reagent (Promega #G7573).

[3] = NSD2 biochemical activity, class symbols

NSD2 [1-1365], sequence (O96028 whole entry): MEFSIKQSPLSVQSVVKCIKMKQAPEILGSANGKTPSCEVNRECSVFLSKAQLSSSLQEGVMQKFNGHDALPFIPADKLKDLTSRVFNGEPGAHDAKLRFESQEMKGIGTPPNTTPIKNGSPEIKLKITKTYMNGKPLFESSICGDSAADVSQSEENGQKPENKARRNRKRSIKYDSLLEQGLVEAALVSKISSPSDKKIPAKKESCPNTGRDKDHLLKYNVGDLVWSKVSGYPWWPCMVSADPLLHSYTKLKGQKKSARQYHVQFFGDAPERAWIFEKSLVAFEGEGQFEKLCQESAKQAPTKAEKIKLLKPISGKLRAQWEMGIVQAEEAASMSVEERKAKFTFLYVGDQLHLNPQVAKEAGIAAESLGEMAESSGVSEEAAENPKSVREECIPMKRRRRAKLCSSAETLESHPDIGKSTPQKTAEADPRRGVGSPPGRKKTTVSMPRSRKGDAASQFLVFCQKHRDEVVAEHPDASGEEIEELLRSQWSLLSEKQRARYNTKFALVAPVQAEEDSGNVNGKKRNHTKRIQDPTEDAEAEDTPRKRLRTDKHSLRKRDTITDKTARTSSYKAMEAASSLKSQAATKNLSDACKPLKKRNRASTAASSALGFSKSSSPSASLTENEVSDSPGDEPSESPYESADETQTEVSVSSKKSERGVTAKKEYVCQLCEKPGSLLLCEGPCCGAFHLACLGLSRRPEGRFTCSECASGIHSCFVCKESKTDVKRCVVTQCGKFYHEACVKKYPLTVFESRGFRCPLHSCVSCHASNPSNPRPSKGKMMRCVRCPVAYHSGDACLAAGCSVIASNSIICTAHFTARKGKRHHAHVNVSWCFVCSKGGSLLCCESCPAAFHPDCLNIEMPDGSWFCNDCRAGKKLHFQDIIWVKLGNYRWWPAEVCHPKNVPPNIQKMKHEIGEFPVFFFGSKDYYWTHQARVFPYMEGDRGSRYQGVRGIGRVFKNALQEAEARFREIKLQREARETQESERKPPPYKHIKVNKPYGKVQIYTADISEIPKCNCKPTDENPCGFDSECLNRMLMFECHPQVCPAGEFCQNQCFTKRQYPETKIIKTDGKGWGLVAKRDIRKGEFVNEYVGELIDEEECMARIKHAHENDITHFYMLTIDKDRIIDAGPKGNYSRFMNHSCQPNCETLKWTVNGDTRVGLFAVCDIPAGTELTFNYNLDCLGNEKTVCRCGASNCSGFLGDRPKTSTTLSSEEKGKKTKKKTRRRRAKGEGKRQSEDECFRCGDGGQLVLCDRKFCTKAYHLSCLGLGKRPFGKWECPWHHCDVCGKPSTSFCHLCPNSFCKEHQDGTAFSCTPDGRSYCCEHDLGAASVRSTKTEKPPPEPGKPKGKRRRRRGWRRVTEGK

Compound | IC50 [1] [nM] | IC50 [2] [nM] | IC50 [1, 3] [nM]
Nc1ncnc2c1ncn2Cc1cc(-c2ccc(F)c(F)c2)ncc1N1CCCC(N)(C=C(F)F)C1 (stereo not shown) [Example 294, 9-((5-(3-amino-3-(2,2-difluorovinyl)piperidin-1-yl)-2-(3,4-difluorophenyl)pyridin-4-yl)methyl)-9H-purin-6-amine] | 10 to 1000 | 9440 | –
Cn1cc(C2(N)CCCN(c3cnc(-c4ccc(F)c(F)c4)cc3Cn3cnc4c(N)nccc43)C2)cn1 (stereo not shown) [Example 270, 1-((5-(3-amino-3-(1-methyl-1H-pyrazol-4-yl)piperidin-1-yl)-2-(3,4-difluorophenyl)pyridin-4-yl)methyl)-1H-imidazo[4,5-c]pyridin-4-amine] | 10 to 1000 | 15300 | –
CCn1ccc(C2(N)CCCN(c3cnc(-c4ccc(F)cc4)cc3Cn3cnc4c(N)nccc43)C2)n1 (stereo not shown) [Example 277, 1-((5-(3-amino-3-(1-ethyl-1H-pyrazo1-3-yl)piperidin-1-yl)-2-(4-fluorophenyl)pyridin-4-yl)methyl)-1H-imidazo[4,5-c]pyridin-4-amine] | 10 to 1000 | 2200 | –
CCc1cccc([C@@]2(N)CCCN(c3cnc(C4CC4)cc3Cn3cnc4c(N)nccc43)C2)n1 [Example 252, (R)-1-((5-(3-amino-3-(6-ethylpyridin-2-yl)piperidin-1-yl)-2-cyclopropylpyridin-4-yl)methyl)-1H-imidazo[4,5-c]pyridin-4-amine] | 10 to 1000 | 7250 | –
Nc1ncnc2c1ncn2Cc1cc(-c2ccc(F)c(F)c2)ncc1N1CCC[C@](N)(C(=O)N2CCCC2)C1 [Example 84, (R)-(3-amino-1-(4-((6-amino-9H-purin-9-yl)methyl)-6-(3,4-difluorophenyl)pyridin-3-yl)piperidin-3-yl)(pyrrolidin-1-yl)methanone] | – | – | 10 to 1000
Nc1ncnc2c1ncn2Cc1cc(-c2ccc(F)c(F)c2)ncc1N1CCC[C@@H](N)[C@H]1CCO [Example 314, 2-((2R,3R)-3-amino-1-(4-((6-amino-9H-purin-9-yl)methyl)-6-(3,4-difluorophenyl)pyridin-3-yl)piperidin-2-yl)ethan-1-ol] | 10 to 1000 | – | –
Nc1ncnc2c1ncn2Cc1cc(-c2ccc(F)c(F)c2)ncc1N1CCCC(N)(C(F)CF)C1 (stereo not shown) [Example 287, 9-((5-(3-amino-3-(1,2-difluoroethyl)piperidin-1-yl)-2-(3,4-difluorophenyl)pyridin-4-yl)methyl)-9H-purin-6-amine] | 10 to 1000 | – | –
Nc1ncnc2c1ncn2Cc1cc(-c2ccc(F)c(F)c2)ncc1N1CCC[C@@H](N)[C@H]1CO [Example 312, ((2S,3R)-3-amino-1-(4-((6-amino-9H-purin-9-yl)methyl)-6-(3,4-difluorophenyl)pyridin-3-yl)piperidin-2-yl)methanol] | 10 to 1000 | – | –
Cn1cnc2ccc(-c3cc(Cn4cnc5c(N)ncnc54)c(N4CCCC(N)(c5cccc(Cl)n5)C4)cn3)cc21 (stereo not shown) [Example 220, 9-((5-(3-amino-3-(6-chloropyridin-2-yl)piperidin-1-yl)-2-(1-methyl-1H-benzo[d]imidazol-6-yl)pyridin-4-yl)methyl)-9H-purin-6-amine] | 10 to 1000 | – | –
COC(=O)C[C@@]1(N)CCCN(c2cnc(-c3cccc(F)c3)cc2Cn2cnc3c(N)ncnc32)C1 [Example 73, methyl (S)-2-(3-amino-1-(4-((6-amino-9H-purin-9-yl)methyl)-6-(3-fluorophenyl)pyridin-3-yl)piperidin-3-yl)acetate] | – | – | 10 to 1000
Nc1ncnc2c1ncn2Cc1cc(-c2ccc(CNC(=O)CCl)cc2)ncc1N1CCCC(N)(CC(F)F)C1 (stereo not shown) [Example 75, N-(4-(5-(3-amino-3-(2,2-difluoroethyl)piperidin-1-yl)-4-((6-amino-9H-purin-9-yl)methyl)pyridin-2-yl)benzyl)-2-chloroacetamide] | – | – | 10 to 1000
CC(O)c1ccc([C@@]2(N)CCCN(c3cnc(-c4ccc(F)c(F)c4)cc3Cn3cnc4c(N)ncnc43)C2)nc1F (stereo partly drawn) [Example 215, 1-(6-((R)-3-amino-1-(4-((6-amino-9H-purin-9-yl)methyl)-6-(3,4-difluorophenyl)pyridin-3-yl)piperidin-3-yl)-2-fluoropyridin-3-yl)ethan-1-ol] | 10 to 1000 | – | –
Nc1ncnc2c1ncn2Cc1cc(-c2ccc(F)c(F)c2)ncc1N1CCCC(N)(c2ccc(Cl)nn2)C1 (stereo not shown) [Example 249, 9-((5-(3-amino-3-(6-chloropyridazin-3-yl)piperidin-1-yl)-2-(3,4-difluorophenyl)pyridin-4-yl)methyl)-9H-purin-6-amine] | 1 to 10 | – | –
COc1cc(F)c(-c2ncc(N3CCC[C@](N)([C@H](O)C(F)F)C3)c(Cn3cnc4c(N)ncnc43)c2F)cc1F [Example 149, (S)-1-((R)-3-amino-1-(4-((6-amino-9H-purin-9-yl)methyl)-6-(2,5-difluoro-4-methoxyphenyl)-5-fluoropyridin-3-yl)piperidin-3-yl)-2,2-difluoroethan-1-ol] | – | – | 10 to 1000
CC1(C(=O)C2(N)CCCN(c3cnc(-c4ccc(F)c(F)c4)cc3Cn3cnc4c(N)ncnc43)C2)COC1 (stereo not shown) [Example 112, (3-amino-1-(4-((6-amino-9H-purin-9-yl)methyl)-6-(3,4-difluorophenyl)pyridin-3-yl)piperidin-3-yl)(3-methyloxetan-3-yl)methanone] | – | – | > 1000
COCCC1(N)CCCN(c2cnc(-c3ccc(F)c(F)c3)cc2Cn2cnc3c(N)ncnc32)C1 (stereo not shown) [Example 60, 9-((5-(3-amino-3-(2-methoxyethyl)piperidin-1-yl)-2-(3,4-difluorophenyl)pyridin-4-yl)methyl)-9H-purin-6-amine] | – | – | 10 to 1000
Nc1ncnc2c1ncn2Cc1cc(-c2ccc(F)c(F)c2)ncc1N1C[C@H](N)C[C@H](F)C1 [Example 309, 9-((5-((3R,5S)-3-amino-5-fluoropiperidin-1-yl)-2-(3,4-difluorophenyl)pyridin-4-yl)methyl)-9H-purin-6-amine] | 10 to 1000 | – | –
Nc1ncnc2c1ncn2Cc1cc(-c2ccc(F)c(F)c2)ncc1N1CCCC(N)C1=O (stereo not shown) [Example 324, 3-amino-1-(4-((6-amino-9H-purin-9-yl)methyl)-6-(3,4-difluorophenyl)pyridin-3-yl)piperidin-2-one] | > 1000 | – | –
CCc1cncc([C@@]2(N)CCCN(c3cnc(-c4ccc(F)cc4)cc3Cn3cnc4c(N)ncnc43)C2)n1 [Example 250, (R)-9-((5-(3-amino-3-(6-ethylpyrazin-2-yl)piperidin-1-yl)-2-(4-fluorophenyl)pyridin-4-yl)methyl)-9H-purin-6-amine] | 10 to 1000 | – | –
Nc1ncnc2c1ncn2Cc1cc(-c2ccc(F)c(F)c2)ncc1N1CCC(O)C(N)(CC(F)F)C1 (stereo not shown) [Example 301, 3-amino-1-(4-((6-amino-9H-purin-9-yl)methyl)-6-(3,4-difluorophenyl)pyridin-3-yl)-3-(2,2-difluoroethyl)piperidin-4-ol] | 10 to 1000 | – | –
COc1ccc(-c2cc(Cn3cnc4c(N)ncnc43)c(N3C[C@H](N)CC(F)(F)C3)cn2)cc1F [Example 16, (R)-9-((5-(5-amino-3,3-difluoropiperidin-1-yl)-2-(3-fluoro-4-methoxyphenyl)pyridin-4-yl)methyl)-9H-purin-6-amine] | – | – | 10 to 1000
